# Measured values reported in US7312322B1, “Genetic sequences encoding steroid and juvenile hormone receptor polypeptides and insecticidal modalities therefor” (priority 1998, dated 2007).
# What was measured:
# [1] = target: T1, linker and ligand-binding regions of the L. cuprina EcR polypeptide and partner protein (USP polypeptide) (Lucilia cuprina, UniProt O18531); assay: [3H]ponasterone A binding assay in Sf9 and Sf21 cells infected by recombinant baculovirus (modified method of Yund et al); details: compared to the ecdysone holoreceptor in L. cuprina embryos; no specific binding with control virus (FIG. 3)
# T1 construct: made in house; host or cells: recombinant baculovirus in insect Sf9 and Sf21 cells (extracts)
# T1 sequence (O18531 366-757): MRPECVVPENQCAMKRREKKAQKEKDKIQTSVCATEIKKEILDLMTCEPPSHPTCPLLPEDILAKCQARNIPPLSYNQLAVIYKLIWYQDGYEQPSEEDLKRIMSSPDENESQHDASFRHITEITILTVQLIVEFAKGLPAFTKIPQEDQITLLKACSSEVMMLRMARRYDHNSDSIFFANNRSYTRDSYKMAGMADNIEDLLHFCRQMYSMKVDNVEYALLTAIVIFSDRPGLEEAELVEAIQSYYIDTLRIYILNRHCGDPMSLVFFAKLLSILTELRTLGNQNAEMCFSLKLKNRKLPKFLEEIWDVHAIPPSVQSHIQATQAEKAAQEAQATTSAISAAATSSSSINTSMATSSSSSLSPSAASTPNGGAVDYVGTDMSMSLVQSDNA
# Excerpt: Control cells contained baculovirus expressing β-galactosidase and CAT only.
# The segment of pLcEcR.USP.DUAL which encodes the tagged linker and ligand-binding regions of the EcR polypeptide and partner protein (USP polypeptide) sequences, placed operably under the control of polyhedrin and p10 promoters, respectively, was recombined into a baculovirus genome, by employing the Tn7 transposition system (Luckow et al, (1993). The polypeptide products were then co-expressed in insect Sf21 and Sf9 cells, where they associated into a functional complex.
# [2] = tested on: in vitro-translated complex of the M. persicae EcR and USP polypeptides; assay: Tritiated ponasterone A filter binding assay with in vitro-translated polypeptides; set-up: species or system Myzus persicae; details: tritiated ponasterone A 2.2 nM, 90 min, room temperature; complex versus USP or EcR polypeptide alone (FIG. 4)
# Protocol: In vitro-translated Myzus persicae EcR (MpEcR) polypeptide and an in vitro-translated M. persicae USP (MpUSP) polypeptide were produced labelled with [^35S]Methionine, using the Promega TNT-Coupled Reticulocyte Lysate System. Each batch of lysate contained 100-200 mg/ml of endogenous proteins (using BSA as a standard). The products were analysed by SDS-PAGE and radioautography. The results confirmed that the cloned cDNAs encode proteins of the sizes predicted from the length of putative open reading frames of the cDNAs present in plasmids pMpEcR and pMPUSP. The yields of EcR and USP were similar as assessed by SDS-PAGE.
# In functional assays, DNA plasmids pMpEcR (AGAL Accession No. NM99/04567; […]) or pMpUSP (AGAL Accession No. NM99/04568; […]), which have been constructed using the vector pBK-CMV, and […] of appropriate TNT RNA Polymerase were added to […] of reaction mix which contained TNT Lysate, TNT Reaction Buffer, amino acid mixture, Rnasin Ribonuclease Inhibitor and nuclease-free water in volumes specified in the manufactureFS protocol. […]
# After thawing the translation products, […] aliquots of the reaction mixture containing M. persicae EcR and USP polypeptides were combined to promote formation of the EcR/USP complex. […] The receptor bound ligand was quantified using a TriCarb 2100TR scintillation counter.
smiles,measurement,setting,value
"CC(C)CC[C@@H](O)[C@](C)(O)[C@H]1CC[C@@]2(O)C3=CC(=O)[C@@H]4C[C@@H](O)[C@@H](O)C[C@]4(C)[C@H]3CC[C@]12C [PNA, ponasterone A]",binding of labelled ligand in cells infected by the recombinant baculovirus,[1],highly-significant increase in the binding
same,amount of ligand bound to EcR/USP complex,[2],significantly higher amounts
